Several values for one entry are separate records, joined by “and”; a condition that tells them apart may be missing. Equal values may be shown once. Where a name gives a salt, the structure may show the parent alone. Read-outs that look alike come from different tables or passages of the source. One block for each compound: values may come before it.
Tests used:
[1] = tested on: dog BGT-1; details: read-out: IC50, dog VGT-1, inhibition of [3H]GABA uptake; oocytes (Yamauchi et al., 1992); except GABA estimated from percent inhibition at a single concentration; cited from earlier work
[2] = molecular target: T1, human BGT-1 (Homo sapiens, UniProt P48065); experiment: cell-based
T1 sequence (P48065 1-614 C10Y): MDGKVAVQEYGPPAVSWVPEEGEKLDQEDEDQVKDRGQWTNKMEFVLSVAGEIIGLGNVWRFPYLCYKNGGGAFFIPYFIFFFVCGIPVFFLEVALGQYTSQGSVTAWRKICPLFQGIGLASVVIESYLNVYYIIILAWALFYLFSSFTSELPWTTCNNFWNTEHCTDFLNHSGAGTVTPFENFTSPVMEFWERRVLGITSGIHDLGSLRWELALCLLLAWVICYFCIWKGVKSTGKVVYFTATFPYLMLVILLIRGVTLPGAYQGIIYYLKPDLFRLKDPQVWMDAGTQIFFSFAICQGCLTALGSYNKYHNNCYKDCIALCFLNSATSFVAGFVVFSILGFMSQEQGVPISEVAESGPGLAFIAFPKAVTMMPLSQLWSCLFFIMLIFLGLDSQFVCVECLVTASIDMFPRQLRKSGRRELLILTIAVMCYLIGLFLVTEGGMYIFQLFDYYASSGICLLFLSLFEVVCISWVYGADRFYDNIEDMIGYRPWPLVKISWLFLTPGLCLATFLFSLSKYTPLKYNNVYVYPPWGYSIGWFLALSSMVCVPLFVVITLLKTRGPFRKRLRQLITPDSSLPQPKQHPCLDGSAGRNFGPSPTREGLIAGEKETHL
Experimental: (§2) Cells were grown under standard conditions (37° C., 5% CO2) in Dulbecco's modified Eagles's medium (GIBCO, Grand Island, N.Y.).
(§3) After 10 minutes the medium was removed and unlabeled drugs in HBS were added (450 μl/well). […] Plates were incubated at 37° C. for 10 minutes, then washed rapidly 3× with ice-cold HBS, using a 24-position plate washer (Brandel, Gaithersburg, Mass.; model PW-12). Cells were solubilized with 0.05% sodium deoxycholate/0.1N NaOH (0.25 ml/well), an aliquot neutralized with 1N HCl, and radioactivity was determined by scintillation counting. Protein was quantified in an aliquot of the solubilized cells using a BIO-RAD protein assay kit, according to the manufacturer's directions.
(§4) Data Analysis: Competition curves were conducted in duplicate, using 10 concentrations of unlabeled drug. […] All data throughout the paper represent means±SEM.
(§5) Cells were grown under standard conditions (37° C., 5% CO2) in DMEM (Dulbecco's modified Eagles's medium; GIBCO, Grand Island, N.Y.).
(§6) Cells grown in 24-well plates were washed 3× with HEPES-buffered saline (HBS, in mM: NaCl, 150; HEPES, 20; CaCl2, 1; glucose, 10; KCl, 5; MgCl2 1; pH 7.4) and allowed to equilibrate on a 37° C. slide warmer. After 10 minutes the medium was removed and unlabeled drugs in HBS were added (450 μl/well). […] Plates were incubated at 37° C. for 10 minutes, then washed rapidly 3× with ice-cold HBS, using a 24-position plate washer (Brandel, Gaithersburg, Mass.; model PW-12). Cells were solubilized with 0.05% sodium deoxycholate/0.1N NaOH (0.25 ml/well), an aliquot neutralized with 1N HCl, and radioactivity was determined by scintillation counting. Protein was quantified in an aliquot of the solubilized cells using a BIO-RAD protein assay kit, according to the manufacturer's directions.
(§7) Competition curves were conducted in duplicate, using 10 concentrations of unlabeled drug. […] All data throughout the paper represent means±S.E.M.

[3] = tested on: Type 1 astrocytes; experiment: Inhibition of [3H]GABA uptake in Type 1 astrocyte cultures; assay type: cell-based, rat; details: read-out: IC50, Type 1 astrocytes, inhibition of [3H]GABA uptake
Experimental: Preparation of primary rat astrocyte cell cultures: Primary glial cultures were established from newborn Sprague-Dawley rat brains. Brains minus cerebella were removed aseptically and carefully dissected free of meninges. […] The cells were dissociated by trituration through a serological pipet. Separate procedures were then used for the preparation of Type-1 and O-2A/Type-2 astrocyte cultures, as will now be described.
For the preparation of Type-1 astrocyte cultures, cells were plated onto uncoated 75 cm^2 flasks at low density (1 brain per 10 flasks, or approximately 8×10^4 cells/cm^2). The medium was changed the following day and twice a week thereafter.
(§1) Data represent means±SEM.

[4] = tested on: neuronal cultures; experiment: Inhibition of [3H]GABA uptake in primary rat neuronal cultures; assay type: cell-based
Experimental: Brains were removed aseptically from E17 embryonic Sprague-Dawley rats brains, carefully dissected free of meninges, and kept on ice. A single-cell suspension was made by mincing the brains, followed by trituration through a serological pipet. […] On day three cytosine β-D-arabinofuransoside (3 μM) was added to control the proliferation of non-neuronal cells. The cultures were used for transport assay approximately one week after plating.
as §1

[5] = molecular target: T2, human GAT-3 (Homo sapiens, UniProt P48066); experiment: Inhibition of [3H]GABA uptake, human GAT-3 stable LM(tk-) cell line; assay type: cell-based; details: read-out: IC50, human GAT-3, inhibition of [3H]GABA uptake, Table 9, means ± S.E.M.
T2 construct: expressed in transfected cells
T2 sequence (P48066 1-632): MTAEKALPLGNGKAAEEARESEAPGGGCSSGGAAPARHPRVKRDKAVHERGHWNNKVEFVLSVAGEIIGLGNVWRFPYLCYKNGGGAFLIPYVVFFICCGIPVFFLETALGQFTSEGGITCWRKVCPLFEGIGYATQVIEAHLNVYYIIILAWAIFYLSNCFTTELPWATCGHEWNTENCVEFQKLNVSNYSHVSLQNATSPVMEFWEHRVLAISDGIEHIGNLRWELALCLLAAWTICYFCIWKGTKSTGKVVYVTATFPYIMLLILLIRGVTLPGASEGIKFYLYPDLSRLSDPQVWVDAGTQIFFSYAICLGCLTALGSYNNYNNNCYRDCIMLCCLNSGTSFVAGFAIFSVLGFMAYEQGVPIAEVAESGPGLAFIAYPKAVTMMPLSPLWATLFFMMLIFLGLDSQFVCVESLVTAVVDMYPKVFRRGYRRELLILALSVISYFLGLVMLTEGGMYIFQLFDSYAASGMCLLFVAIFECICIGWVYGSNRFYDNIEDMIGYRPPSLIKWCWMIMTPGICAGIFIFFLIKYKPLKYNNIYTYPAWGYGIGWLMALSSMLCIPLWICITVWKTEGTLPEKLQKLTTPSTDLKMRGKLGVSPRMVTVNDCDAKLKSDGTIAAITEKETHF
Experimental: as §5, §6, §7

[6] = tested on: brain synaptosomes; details: Ali et al. (1985); cited from earlier work
[7] = literature reports; cited from earlier work
[8] = molecular target: T3, rat GAT-2 (Rattus norvegicus, UniProt P31646); experiment: Inhibition of [3H]GABA uptake, rat GAT-2 stable LM(tk-) cell line; assay type: cell-based; details: read-out: IC50, rat GAT-2, inhibition of [3H]GABA uptake, Table 9, means ± S.E.M.
T3 construct: expressed in transfected cells
T3 sequence (P31646 1-602): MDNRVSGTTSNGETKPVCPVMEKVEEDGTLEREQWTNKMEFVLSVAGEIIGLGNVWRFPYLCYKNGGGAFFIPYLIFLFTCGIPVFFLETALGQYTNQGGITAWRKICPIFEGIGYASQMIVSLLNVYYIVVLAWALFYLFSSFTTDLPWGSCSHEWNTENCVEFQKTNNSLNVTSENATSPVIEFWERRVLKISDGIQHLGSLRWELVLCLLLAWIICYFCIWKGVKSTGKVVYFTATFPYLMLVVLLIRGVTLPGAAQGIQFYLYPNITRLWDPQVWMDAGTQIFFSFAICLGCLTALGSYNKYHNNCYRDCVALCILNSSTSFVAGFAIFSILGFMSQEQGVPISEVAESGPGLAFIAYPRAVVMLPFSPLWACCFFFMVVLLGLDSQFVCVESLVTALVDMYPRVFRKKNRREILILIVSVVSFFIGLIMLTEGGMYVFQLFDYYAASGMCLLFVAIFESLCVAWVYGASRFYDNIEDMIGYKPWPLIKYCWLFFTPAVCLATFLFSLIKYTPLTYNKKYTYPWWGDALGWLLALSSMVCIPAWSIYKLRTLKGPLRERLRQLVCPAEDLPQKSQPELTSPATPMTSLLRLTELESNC
Experimental: as §5, §6, §7

[9] = molecular target: T1, human BGT-1
Experimental: as §2, §3, §4, §5, §6, §7

[10] = Phase II clinical trials; cited from earlier work
[11] = molecular target: T4, mouse GAT-2 (Mus musculus, UniProt P31651); design: host or cells: oocytes (Lopez-Corcuera et al., 1992); details: read-out: IC50, mouse GAT-2, inhibition of [3H]GABA uptake; oocytes (Lopez-Corcuera et al., 1992); except GABA estimated from percent inhibition at one or two concentrations; cited from earlier work
T4 sequence (P31651 1-614): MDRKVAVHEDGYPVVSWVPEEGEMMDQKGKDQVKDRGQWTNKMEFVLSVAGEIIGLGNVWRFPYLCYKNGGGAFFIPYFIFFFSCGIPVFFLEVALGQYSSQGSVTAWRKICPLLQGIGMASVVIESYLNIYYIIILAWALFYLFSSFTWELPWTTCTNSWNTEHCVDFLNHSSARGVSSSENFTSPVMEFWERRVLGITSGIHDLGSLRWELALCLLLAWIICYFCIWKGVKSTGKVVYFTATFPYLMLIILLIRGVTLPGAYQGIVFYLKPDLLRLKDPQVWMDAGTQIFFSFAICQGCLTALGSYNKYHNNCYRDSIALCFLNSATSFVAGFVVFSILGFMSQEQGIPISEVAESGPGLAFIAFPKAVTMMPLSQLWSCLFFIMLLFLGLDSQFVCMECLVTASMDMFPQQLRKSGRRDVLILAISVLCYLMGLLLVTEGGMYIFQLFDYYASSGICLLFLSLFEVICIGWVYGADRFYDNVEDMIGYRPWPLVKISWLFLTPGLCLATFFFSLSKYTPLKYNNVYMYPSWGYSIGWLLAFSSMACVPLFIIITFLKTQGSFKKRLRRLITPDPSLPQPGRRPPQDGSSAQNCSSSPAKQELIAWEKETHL

[12] = molecular target: T4, mouse GAT-2; details: from Table 1
[13] = molecular target: human GAT-1 (Homo sapiens, UniProt P30531); details: read-out: IC50, human GAT-1, inhibition of [3H]GABA uptake; Table 9; stable LM(tk-) cell line; means ± S.E.M.
Experimental: as §5, §6, §7

[14] = tested on: GAT-1; details: range over compounds and human/rat clones
Experimental: as §5, §6, §7

[15] = tested on: GAT-2 and GAT-3; details: range over clones, regardless of species
Experimental: as §5, §6, §7

[16] = tested on: rat brain aggregates; experiment: Inhibition of [3H]GABA uptake in rat brain aggregates; assay type: cell-based; details: read-out: IC50, control, inhibition of [3H]GABA uptake in rat brain aggregates
Experimental: Briefly, adult rat brains were removed from the skull and the cerebral cortex was dissected and placed in ice-cold HBS. […] The preparation was washed once by centrifugation, then resuspended in HBS.
The filters were washed with ice-cold HBS, punched into vials, and radioactivity determined by scintillation counting. Protein was determined in an aliquot of the aggregate preparation using the BIO-RAD protein assay kit.
as §1

[17] = tested on: GAT-2 and GAT-3; experiment: Inhibition of [3H]GABA uptake at cloned GAT-2 and GAT-3, text summary; details: read-out: IC50s at GAT-2 and GAT-3 (range); range over clones, regardless of species
Experimental: as §5, §6, §7

[18] = IC50, hBGT-1, inhibition of [3H]GABA uptake
[19] = IC50, hBGT-1, inhibition of [3H]GABA uptake, stably transfected LM(tk-), 50 nM [3H]GABA, mean ± standard error of at least three experiments
[20] = Rattus norvegicus, Astrocyte, 3 h

Sequence of human GAT-1 (P30531 whole entry): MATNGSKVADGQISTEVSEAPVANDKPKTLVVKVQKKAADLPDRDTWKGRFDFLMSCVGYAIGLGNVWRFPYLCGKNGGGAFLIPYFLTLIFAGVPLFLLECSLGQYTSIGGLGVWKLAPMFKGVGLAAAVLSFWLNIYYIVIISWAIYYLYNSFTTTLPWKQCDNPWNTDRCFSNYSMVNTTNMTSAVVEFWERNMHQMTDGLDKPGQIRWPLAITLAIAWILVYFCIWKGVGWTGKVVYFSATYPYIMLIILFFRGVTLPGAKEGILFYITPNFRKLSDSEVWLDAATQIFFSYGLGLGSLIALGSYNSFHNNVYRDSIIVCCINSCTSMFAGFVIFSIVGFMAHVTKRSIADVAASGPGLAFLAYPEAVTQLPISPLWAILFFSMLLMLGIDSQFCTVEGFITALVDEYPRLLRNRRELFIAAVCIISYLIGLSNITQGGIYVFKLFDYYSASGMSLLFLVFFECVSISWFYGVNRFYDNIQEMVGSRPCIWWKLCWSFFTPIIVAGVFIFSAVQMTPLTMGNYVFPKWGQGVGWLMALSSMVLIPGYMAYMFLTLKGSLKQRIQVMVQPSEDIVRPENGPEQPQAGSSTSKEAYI

Compound: O=C(O)C1CCCNC1 (racemic) [(±)-nipecotic acid, (R,S)-nipecotic acid]
IC50 [1]: 4.7 mM

Compound: N[C@@H]1CCC[C@H](C(=O)O)C1 (relative stereo) [ACHC, cis-3-aminocyclohexanecarboxylic acid]
IC50 [2, 18]: 1850 µM

IC50 [2, 19]: 1520 µM
Compound: N=C(N)NCCS(=O)(=O)O [GES, guanidinoethanesulfonic acid]

Compound: NCC[C@H](N)C(=O)O [L-DABA, L-(2,4)diaminobutyric acid]
IC50 [3, 20]: 3400 µM | IC50 [1]: 4.7 mM | IC50 [2, 18]: 160 to 600 µM and 354 µM

IC50 [2, 19]: 160 to 600 µM
Compound: O=C(O)C1=CCCN(CCON=C(c2ccccc2)c2ccccc2)C1 [NNC-711, 1-(2-(((diphenylmethylene)amino)oxy)ethyl)-1,2,4,6-tetrahydro-3-pyridinecarboxylic acid hydrochloride]
activity at 10 µM ([4]; read-out: specific [3H]GABA uptake that persisted in neuronal cultures): 31 ± 1%

Compound: O=C(O)C1CCCN(CCC=C(c2ccccc2)c2ccccc2)C1 (stereo not drawn) [SK&F 89976-A, N-(4,4-diphenyl-3-butenyl)-3-piperidinecarboxylic acid]
IC50 [5]: 944 ± 259 µM | increase in potency over the parent compound (nipecotic acid or guvacine) [6]: 20 fold | anticonvulsive activity in animals [7]: display anticonvulsive activity

Compound: O=C(O)C1=CCCN(CCC=C(c2ccccc2)c2ccccc2)C1 [SK&F 100330-A]
increase in potency over the parent compound (nipecotic acid or guvacine) [6]: 20 fold

IC50 [8]: 1410 ± 250 µM | IC50 [5]: 917 ± 193 µM | IC50 ([9]; read-out: IC50, human BGT-1, inhibition of [3H]GABA uptake, Table 9, stable LM(tk-) cell line, means ± S.E.M.): 1.67 ± 0.722 mM
Compound: Cc1ccsc1C(=CCCN1CCC[C@@H](C(=O)O)C1)c1sccc1C [Tiagabine, (R)-1-[4,4-Bis(3-methyl-2-thienyl)-3-butenyl]-3-piperidencarboxylic acid]
anticonvulsive activity in animals [7]: display anticonvulsive activity | anti-seizure activity in patients [10]: demonstrated anti-seizure activity

Compound: C[N+](C)(C)CC(=O)O [betaine]
IC50 [2, 19]: 934 ± 22 µM | IC50 ([2]; IC50 at hBGT-1 as stated in text, stable LM(tk-) cells, [3H]GABA uptake): 1000 to 2000 µM | IC50 [11]: 0.206 mM | selectivity (potency) for mouse BGT-1 as compared to dog BGT-1 [12]: 2 fold | selectivity (potency) for mouse BGT-1 as compared to human BGT-1 [12]: 5 fold

IC50 [8]: 58 ± 5 µM | IC50 [5]: 119 ± 24 µM | IC50 [13]: 14 ± 3 µM | IC50s at GAT-1 (range) [14]: 14 to 39 µM | IC50s at GAT-2 and GAT-3 (range) [15]: 102 to 378 µM
Compound: O=C(O)C1=CCCNC1 [guvacine]
IC50 [11]: 2.8 mM

IC50 [2, 18]: 160 to 600 µM and 380 µM
Compound: NCCS(=O)O [hypotaurine]

IC50 [2, 19]: 160 to 600 µM and 160 µM
Compound: O=C(CCc1ccc(O)cc1)c1c(O)cc(O)cc1O [phloretin]

Compound: C=C[C@H]1C[N@@]2CC[C@H]1C[C@@H]2[C@@H](O)c1ccnc2ccc(OC)cc12 [quinidine]
IC50 [2, 18]: 1190 µM | IC50 [11]: 0.049 mM

Compound: NCCS(=O)(=O)O [taurine]
IC50 ([4]; Neuron, read-out: IC50, Neurons, inhibition of [3H]GABA uptake): 8.3 mM | IC50 [3, 20]: ~50 µM | IC50 [3]: 47 ± 10 µM | IC50 ([16]; Rattus norvegicus): 64 mM | IC50 [2, 18]: 10600 µM | IC50 ([2]; IC50 at hBGT-1 as stated in text): > 10000 µM

Compound: NCCC(=O)O [β-alanine]
IC50 [11]: 1.9 mM | IC50 [17]: 19 to 110 µM

Compound: hydroxynipecotic acid
IC50 ([16]; absence of NNC-711): 0.01 ± 0.001 mM | IC50 ([9]; read-out: IC50, hBGT-1, inhibition of [3H]GABA uptake): 2.59 mM
